{
  "source": "ChEMBL document CHEMBL4033618",
  "about": "“Covalently linked kanamycin - Ciprofloxacin hybrid antibiotics as a tool to fight bacterial resistance” (Bioorg Med Chem, 2017)",
  "key": {"[1]": {"system": "Staphylococcus epidermidis", "assay": "Antibacterial activity against aminoglycosides-susceptible Staphylococcus epidermidis by double microdilution method", "assay_type": "functional"}, "Bacillus subtilis": {"system": "Bacillus subtilis", "assay": "Antibacterial activity against aminoglycosides-susceptible Bacillus subtilis by double microdilution method", "assay_type": "functional"}, "[2]": {"assay": "Inhibition of Escherichia coli topoisomerase 4 using supercoiled pBR322 DNA as substrate by agarose gel electrophorosis method"}, "Escherichia coli [3]": {"system": "Escherichia coli", "assay": "Antibacterial activity against kanamycin-resistant Escherichia coli AG100A by double microdilution method", "assay_type": "functional"}, "Bacillus spizizenii [4]": {"system": "Bacillus spizizenii", "assay": "Antibacterial activity against Bacillus subtilis ATCC 6633 in 15th subculture in presence of equimolar concentration of kanamycin A by double microdilution method", "assay_type": "functional"}, "[5]": {"assay": "Inhibition of Escherichia coli DNA gyrase using relaxed pBR322 DNA as substrate by agarose gel electrophorosis method"}, "Escherichia coli [6]": {"system": "Escherichia coli", "assay": "Inhibition of protein translation in Escherichia coli S30 cell extract using circular DNA with pBESTluc after 60 mins", "assay_type": "functional"}, "Escherichia coli [7]": {"system": "Escherichia coli", "assay": "Antibacterial activity against aminoglycosides-susceptible Escherichia coli 25922 by double microdilution method", "assay_type": "functional", "conditions": "ATCC 25922"}, "Escherichia coli [8]": {"system": "Escherichia coli", "assay": "Antibacterial activity against Escherichia coli ATCC 35218 in 15th subculture in presence of equimolar concentration of ciprofloxacin by double microdilution method", "assay_type": "functional"}, "Escherichia coli [9]": {"system": "Escherichia coli", "assay": "Ratio of MIC for aminoglycosides-resistant Escherichia coli BL21 harboring pET11d encode for APH(3')-2b resistance enzyme to MIC for Escherichia coli BL21", "assay_type": "functional"}, "Escherichia coli [10]": {"system": "Escherichia coli", "assay": "Antibacterial activity against aminoglycosides-resistant Escherichia coli BL21 harboring pET11d encode for APH(3')-2b resistance enzyme by double microdilution method", "assay_type": "functional"}, "Bacillus spizizenii [11]": {"system": "Bacillus spizizenii", "assay": "Antibacterial activity against Bacillus subtilis ATCC 6633 in 15th subculture in presence of equimolar concentration of ciprofloxacin by double microdilution method", "assay_type": "functional"}, "Bacillus spizizenii [12]": {"system": "Bacillus spizizenii", "assay": "Resistance index, ratio of MIC for Bacillus subtilis ATCC 6633 in 15th subculture to MIC for Bacillus subtilis ATCC 6633 in first subculture", "assay_type": "functional"}, "[13]": {"assay": "Acute toxicity in iv dosed mouse at pH 6.6 administered for 4 days", "assay_type": "organism-based", "conditions": "in vivo"}, "Escherichia coli [14]": {"system": "Escherichia coli", "assay": "Antibacterial activity against Escherichia coli XL1 blue by double microdilution method", "assay_type": "functional"}, "Escherichia coli [15]": {"system": "Escherichia coli", "assay": "Resistance index, ratio of MIC for Escherichia coli ATCC 35218 in 15th subculture to MIC for Escherichia coli ATCC 35218 in first subculture", "assay_type": "functional"}, "Escherichia coli [16]": {"system": "Escherichia coli", "assay": "Antibacterial activity against aminoglycosides-resistant Escherichia coli BL21 harboring pETSACG1 encode for APH(3')-3a resistance enzyme by double microdilution method", "assay_type": "functional"}, "Escherichia coli [17]": {"system": "Escherichia coli", "assay": "Antibacterial activity against Escherichia coli XL1 blue harboring pET9d encode for APH(3')-1a resistance enzyme by double microdilution method", "assay_type": "functional"}, "Escherichia coli [18]": {"system": "Escherichia coli", "assay": "Ratio of MIC for Escherichia coli XL1 blue harboring pET9d encode for APH(3')-1a resistance enzyme to MIC for Escherichia coli XL1 blue", "assay_type": "functional"}, "Escherichia coli [19]": {"system": "Escherichia coli", "assay": "Ratio of MIC for aminoglycosides-resistant Escherichia coli BL21 harboring pETSACG1 encode for APH(3')-3a resistance enzyme to MIC for Escherichia coli BL21", "assay_type": "functional"}, "Escherichia coli [20]": {"system": "Escherichia coli", "assay": "Ratio of MIC for aminoglycosides-resistant Escherichia coli BL21 harboring pSF815 encode for bifunctional AAC(6')/APH(2\\\") resistance enzyme to MIC for Escherichia coli BL21", "assay_type": "functional"}, "Escherichia coli [21]": {"system": "Escherichia coli", "assay": "Antibacterial activity against aminoglycosides-resistant Escherichia coli BL21 harboring pSF815 encode for bifunctional AAC(6')/APH(2\\\") resistance enzyme by double microdilution method", "assay_type": "functional"}, "Escherichia coli [22]": {"system": "Escherichia coli", "assay": "Antibacterial activity against Escherichia coli BL21 by double microdilution method", "assay_type": "functional"}, "Escherichia coli [23]": {"system": "Escherichia coli", "assay": "Antibacterial activity against aminoglycosides-susceptible Escherichia coli R477-100 by double microdilution method", "assay_type": "functional"}, "Escherichia coli [24]": {"system": "Escherichia coli", "assay": "Antibacterial activity against kanamycin-resistant Escherichia coli AG100B by double microdilution method", "assay_type": "functional"}},
  "note": "The source made the active and inactive calls. No cut-off for these calls is given here.",
  "data": [
    {"smiles": "O=C(O)c1cn(C2CC2)c2cc(N3CCNCC3)c(F)cc2c1=O", "note": "[CIPROFLOXACIN]", "values": [
      {"measurement": "MIC", "setting": "[1]", "value": 0.094, "unit": "µg/mL"},
      {"measurement": "MIC", "setting": "Bacillus subtilis", "value": 0.02, "unit": "µg/mL"},
      {"measurement": "IC50", "setting": "[2]; read-out: IC50", "value": 8600, "unit": "nM"},
      {"measurement": "MIC", "setting": "Escherichia coli [3]", "value": "< 0.005", "unit": "µg/mL"},
      {"measurement": "Activity", "setting": "Bacillus spizizenii [4]", "value": "Active"},
      {"measurement": "IC50", "setting": "[5]; read-out: IC50", "value": 1300, "unit": "nM"},
      {"measurement": "IC50", "setting": "Escherichia coli [6]", "value": "Not Active"}
    ]},
    {"smiles": "NC[C@H]1O[C@H](O[C@H]2[C@H](O)[C@@H](O[C@H]3O[C@H](CO)[C@@H](O)[C@H](N)[C@H]3O)[C@H](N)C[C@@H]2N)[C@H](O)[C@@H](O)[C@@H]1O", "note": "[KANAMYCIN]", "values": [
      {"measurement": "MIC", "setting": "Escherichia coli [7]", "value": 48, "unit": "µg/mL"},
      {"measurement": "MIC", "setting": "[1]", "value": 1.5, "unit": "µg/mL"},
      {"measurement": "MIC", "setting": "Bacillus subtilis", "value": 1.5, "unit": "µg/mL"},
      {"measurement": "IC50", "setting": "[2]", "value": "Not Active"},
      {"measurement": "Activity", "setting": "Escherichia coli [8]", "value": "inactive"},
      {"measurement": "Ratio", "setting": "Escherichia coli [9]", "value": ">32"},
      {"measurement": "MIC", "setting": "Escherichia coli [10]", "value": "> 384", "unit": "µg/mL"},
      {"measurement": "MIC", "setting": "Escherichia coli [3]", "value": 96, "unit": "µg/mL"},
      {"measurement": "Activity", "setting": "Bacillus spizizenii [11]", "value": "Active"},
      {"measurement": "Ratio", "setting": "Bacillus spizizenii [12]", "value": 15},
      {"measurement": "LD50 at 96 h", "setting": "[13]", "value": 280, "unit": "mg/kg"},
      {"measurement": "MIC", "setting": "Escherichia coli [14]", "value": 3, "unit": "µg/mL"},
      {"measurement": "Ratio", "setting": "Escherichia coli [15]", "value": 15},
      {"measurement": "MIC", "setting": "Escherichia coli [16]", "value": "> 384", "unit": "µg/mL"},
      {"measurement": "MIC", "setting": "Escherichia coli [17]", "value": "> 384", "unit": "µg/mL"},
      {"measurement": "Ratio", "setting": "Escherichia coli [18]", "value": ">128"},
      {"measurement": "Ratio", "setting": "Escherichia coli [19]", "value": ">32"},
      {"measurement": "Ratio", "setting": "Escherichia coli [20]", "value": ">32"},
      {"measurement": "IC50", "setting": "[5]", "value": "Not Active"},
      {"measurement": "MIC", "setting": "Escherichia coli [21]", "value": "> 384", "unit": "µg/mL"},
      {"measurement": "MIC", "setting": "Escherichia coli [22]", "value": 12, "unit": "µg/mL"},
      {"measurement": "IC50", "setting": "Escherichia coli [6]; Escherichia coli, 1 h, read-out: IC50", "value": 30, "unit": "nM"},
      {"measurement": "MIC", "setting": "Escherichia coli [23]", "value": 12, "unit": "µg/mL"},
      {"measurement": "MIC", "setting": "Escherichia coli [24]", "value": 384, "unit": "µg/mL"}
    ]}
  ]
}
